Source: US20040049075A1, “Process for the production of calcium pantothenate” (priority 2000, published 2004)

Test: Moisture absorption test
Assay type: physicochemical
Conditions: 40° C. and 75% RH; nonhygroscopic defined in b24 as moisture absorption 2% or less after 24 hours
Description: The term “crystalline” used in the specification encompasses a substance containing a small amount of an amorphous part, as well as a substance substantially consisting completely of crystals. However, calcium pantothenate in a completely amorphous state (the state which gives substantially no detectable peak by the powder X-ray diffraction analysis) is excluded. The term “crystalline” should not be interpreted to exclude a substance containing a small amount of an amorphous part. Further, the term “amorphous” means a state in which no peak is substantially detectable by powder X-ray diffraction analysis. The term “nonhygroscopic” used in the specification means that a moisture absorption amount is 2% or less, preferably 1% or less, after 24 hours at 40° C. under a relative humidity of 75%. A moisture absorption test was performed under conditions of 40° C. and 75% RH for the PC consisting of α-form crystals obtained in Example 1 and the PC consisting of β-form crystals obtained in Example 7. A similar test was performed for the amorphous PC used in Example 1 as a control.

hygroscopicity (verdict of moisture absorption test): nonhygroscopic
Substance: monocalcium bis[(R)-N-(2,4-dihydroxy-3,3-dimethylbutyryl)-β-alaninate]
